In assay [1] the test system is colon carcinoma SW480 cells. Set-up: method as in PMID 22331606. The following applies: taken from literature; cited from earlier work.
Assay [2] has as its system non-small cell lung carcinoma A549. Set-up: method as in PMID 22331606. The following applies: A549 cells; taken from literature; cited from earlier work.
Assay [3] has as its system human MCF7 breast cancer cell line. Set-up: method as in PMID 22213516. The settings on record: MCF7 cells; taken from literature; cited from earlier work.
Assay [4] relates to colon carcinoma SW480 cells. In words: MTT cytotoxicity test, 72 h, SW480. It counts as cell-based, human. The settings on record: mean ± standard deviation from 3 independent experiments. The method, then:
(§1) The MCF7, MCF7D (gift of N. I. Moiseeva), HaCat, A549, and SW480 cell lines were cultured in Dulbecco modified Eagle's medium (DMEM; PanEco, Russia) with 10% fetal bovine serum (HyClone, USA) and antibiotics (PanEco, Russia) in 5% CO2, 37°C. The compounds were predissolved at 20 mM in dimethyl sulfoxide (DMSO) and added to the cell culture at the required concentration with maximum DMSO content of 0.5 v/v%. Cells in 96-well plates (7 × 10^3 cells/well) were treated with various concentrations of 3, 4, cisplatin, or bexarotene at 37°C for 72 h. Cell viability was determined using the MTT assay as follows: cells were incubated at 37°C for 4 h with 20 μl of 5 mg/ml solution of 3-(4,5-dimethylthiazol-2-yl)-2,5 diphenyltetrazolium bromide (Sigma-Aldrich, St. Louis, USA). The supernatant was discarded and formazan was dissolved in 150 μl of DMSO. The optical density of the solution was measured at 550 nm on a multiwell plate reader (Multiskan FC, Thermo Fisher Scientific, USA). The percentage of viable (i.e., MTT converting) cells was calculated from the absorbance of untreated cells (100%). Each experiment was repeated three times, and each concentration was tested in three replicates.
(§2) The cytotoxicity of complexes 3 and 4, bexarotene, and cisplatin was evaluated in the human MCF7 breast cancer cell line and its doxorubicin/cisplatin resistant subline MCF7D, as well as against colon carcinoma SW480 cells, non-small cell lung carcinoma A549, and immortalized human nonmalignant keratinocyte HaCat cell line using the colorimetric MTT-test after 72 h of incubation (Table 1). The cytotoxic potency of oxaliplatin, the Pt(II) precursor of the new complexes, was taken from literature.

The test system of assay [5] is non-small cell lung carcinoma A549. In words: MTT cytotoxicity test, 72 h, A549. Type of assay: cell-based, human. The settings on record: A549 cells, mean ± standard deviation from 3 independent experiments. The method, then: as §1, §2
A general note: Tetrazolium assays rely on reduction of a dye to a coloured formazan, in cell work by metabolically active cells.

Assay [6] has as its system human MCF7 breast cancer cell line. Nature of the assay: MTT cytotoxicity test, 72 h, MCF7. The settings on record: MCF7 cells, mean ± standard deviation from 3 independent experiments. Type of assay: cell-based. The method, then:
as §1, §2

In assay [7] the test system is doxorubicin/cisplatin resistant subline MCF7D. Nature of the assay: MTT cytotoxicity test, 72 h, MCF7D. Type of assay: cell-based, human. The following applies: MCF7D cells (doxorubicin/cisplatin resistant), mean ± standard deviation from 3 independent experiments. The procedure:
as §1, §2

The test system of assay [8] is immortalized human nonmalignant keratinocyte HaCat cell line. Nature of the assay: MTT cytotoxicity test, 72 h, HaCat. It counts as cell-based. The following applies: HaCat nonmalignant keratinocytes, mean ± standard deviation from 3 independent experiments. The method, then:
as §1, §2

Like-named read-outs stand apart in the source and are kept apart here.

As usually defined, the IC50 is the concentration that gives 50% inhibition. On to `O=C(O)C(=O)O.[NH-][C@@H]1CCCC[C@H]1[NH-].[Pt+2]` [Oxaliplatin], for which the concentration for half-maximal inhibition (IC50) in assay [1] is 0.9 ± 0.3 µM; in assay [2], 11.5 ± 3.9 µM; in assay [3], 43.8 µM.

Take “(OC-6-33)-(trans-1R,2R-Diaminocyclohexane)-bis(4-(1-(3,5,5,8,8-pentamethyl-5,6,7,8-tetrahydro-2-naphthyl)vinyl)benzoato)oxalatoplatinum(IV) [Complex 3]”: the IC50 is more than 100 µM in assay [4]; 83 ± 16 µM in assay [5]; more than 100 µM in assay [6]; more than 100 µM in assay [7]; more than 100 µM in assay [8].

In the case of `C=C(c1ccc(C(=O)O)cc1)c1cc2c(cc1C)C(C)(C)CCC2(C)C` [Bexarotene, 4-(1-(3,5,5,8,8-pentamethyl-5,6,7,8-tetrahydro-2-naphthyl)vinyl)benzoic acid], the IC50 in assay [4] (Homo sapiens) was 80 ± 10 µM; in assay [5] (Homo sapiens) it was 85 ± 9 µM; in assay [6] (Homo sapiens) it was 67 ± 13 µM; in assay [7] (Homo sapiens), 71 ± 21 µM; in assay [8] (Homo sapiens), more than 90 µM.

Turning to “(OC-6-44)-acetato(trans-1R,2R-Diamineocyclohexane)-4-(1-(3,5,5,8,8-pentamethyl-5,6,7,8-tetrahydro-2-naphthyl)vinyl)benzoato)oxalatoplatinum(IV) [Complex 4]”, the IC50 is 11 ± 1.6 µM in assay [4]; 10 ± 1 µM in assay [5]; 0.47 ± 0.07 µM in assay [6]; 4.8 ± 0.5 µM in assay [7]; 8 ± 1.3 µM in assay [8]. The “IC50 MCF7” value in assay [6] was “submicromolar range”.

For `N.N.[Cl][Pt][Cl]` [Cisplatin], the IC50 in assay [4] amounted to 14 ± 4.4 µM; in assay [5], 29 ± 10 µM; in assay [6] it was 14 ± 7 µM; in assay [7], 75 ± 5.8 µM; in assay [8] it was 30 ± 10 µM.

The values above are taken from article PMC5540250, “Influence of the Number of Axial Bexarotene Ligands on the Cytotoxicity of Pt(IV) Analogs of Oxaliplatin” (Bioinorganic Chemistry and Applications, 2017).
